How the values were obtained:
[1] = target: Human cytomegalovirus protease (assemblin) (Human herpesvirus 5); assay: Inhibitory activity against HCMV protease by HPLC assay
[2] = target: Human cytomegalovirus protease (assemblin) (Human herpesvirus 5); assay: as above; remark: listed apart in the source
[3] = target: Human cytomegalovirus protease (assemblin) (Human herpesvirus 5); assay: Inhibitory activity against HCMV protease by SPA assay

SMILES | IC50 [1] | IC50 [2] | IC50 [3]
CC1(C)CC(=O)C(C2=C(Cl)C(=O)c3ccccc3C2=O)C(=O)C1 [2-Chloro-3-(4,4-dimethyl-2,6-dioxo-cyclohexyl)-[1,4]naphthoquinone] | 150 µM | – | –
CC(=O)C(C(C)=O)C1=C(Cl)C(=O)c2ccccc2C1=O [2-(1-Acetyl-2-oxo-propyl)-3-chloro-[1,4]naphthoquinone] | – | 0.72 µM | 0.8 µM
CC(=O)C(C(=O)OC(C)C)C1=C(Cl)C(=O)c2ccccc2C1=O (configuration not stated) [2-(3-Chloro-1,4-dioxo-1,4-dihydro-naphthalen-2-yl)-3-oxo-butyric acid isopropyl ester] | – | 9.1 µM | 2.68 µM
O=C1C(Cl)=C(C2CCCCCC2)C(=O)c2ccccc21 [2-Chloro-3-cycloheptyl-[1,4]naphthoquinone] | 67 µM | – | –
CC(=O)C(C(=O)OCc1ccccc1)C1=C(Cl)C(=O)c2ccccc2C1=O (configuration not stated) [2-(3-Chloro-1,4-dioxo-1,4-dihydro-naphthalen-2-yl)-3-oxo-butyric acid benzyl ester] | – | 0.7 µM | 0.73 µM
O=C1C(OC2CCCCC2)=C(C2CCCCC2)C(=O)c2ccccc21 [2-Cyclohexyl-3-cyclohexyloxy-[1,4]naphthoquinone] | 110 µM | – | –
CCOC(=O)C(C(C)=O)C1=C(Cl)C(=O)c2ccccc2C1=O (configuration not stated) [2-(3-Chloro-1,4-dioxo-1,4-dihydro-naphthalen-2-yl)-3-oxo-butyric acid ethyl ester] | – | 4.8 µM | 1.45 µM
COC(=O)CC1=C(Cl)C(=O)c2ccccc2C1=O [(3-Chloro-1,4-dioxo-1,4-dihydro-naphthalen-2-yl)-acetic acid methyl ester] | 148 µM | – | –

Source: BindingDB's records for doi:10.1016/s0960-894x(99)00489-8 (Glaxowellcome Medicines Research Centre, 1999)
